The source of these data is patent publication US11072598B2, “Somatostatin modulators and uses thereof” (CRINETICS PHARMACEUTICALS, INC., priority 2017, dated 2021).

Some results are limits rather than exact numbers.

As usually defined, the EC50 is the concentration that produces a half-maximal response.

In one test the target is T1, hSSTR4 (Homo sapiens, UniProt P31391).
T1 construct: expressed in transfected cells
The test can be described thus: inhibition of cAMP via hSSTR4. It counts as cell-based. An excerpt: General overview: All five SSTR subtypes are Gi coupled G-protein coupled receptors (GPCRs) that lead to decreases in intracellular cyclic AMP (cAMP) when activated by an agonist. Therefore, measurement of intracellular cAMP levels can be used to assess whether compounds of the invention are agonists of SSTR subtypes (John Kelly, Troy Stevens, W. Joseph Thompson, and Roland Seifert, Current Protocols in Pharmacology, 2005, 2.2.1-2.2). One example of an intracellular cAMP assay is described below. cAMP assay protocol:
Four days prior to the assay, 5,000 Chinese hamster ovary cells (CHO-K1, ATCC #CCL-61) stably expressing the human somatostatin receptor subtype 2 are plated in each well of a 96-well tissue culture-treated plate in Ham's F12 growth media (ThermoFisher #10-080-CM) supplemented with 10% donor bovine serum (Gemini Bio-Products #100-506), 100 U/mL penicillin; 100 ug/mL streptomycin; 2 mM L-glutamine (Gemini Bio-Products #400-110) and 0.2 mg/mL hygromycin B (GoldBio #31282-04-9). The cells are cultured at 37° C., 5% CO2 and 95% humidity. On the day of the assay, the media is aspirated and the cells are treated with 50 μL of 1.6 μM NKH477 (Sigma #N3290) plus various dilutions of compounds of the invention in assay buffer [1× Hank's Balanced Salt Solution (ThermoFisher #SH3058802), 0.5 mM HEPES pH 7.4, 0.1% bovine serum albumin, 0.2 mM 3-Isobutyl-1-methylxanthine (IBMX, VWR #200002-790)]. The cells are incubated for 20 minutes at 37° C. (the final concentration of the compounds of the invention are typically 0-10,000 nM). The cells are treated with 50 μL of lysis buffer (HRTF cAMP kit, Cisbio). The lysate is transferred to 384-well plates and cAMP detection and visualization antibodies are added and incubated for 1-24 hours at room temperature. The time-resolved fluorescent signal is read with a Tecan M1000Pro multiplate reader. The intracellular cAMP concentrations are calculated by regression to a standard curve and are plotted vs. the concentration of the compounds of the invention and the EC50 of the compounds are calculated using standard methods. All data manipluations are in GraphPad Prism v6.

In a further test the target is T2, hERG ion channel (Homo sapiens, UniProt Q12809).
T2 construct: purchased ThermoFisher Scientific PV5365
The test can be described thus: hERG fluorescence polarization assay (Predictor kit). It counts as binding. The settings on record: tracer displacement, membrane fractions; read-out: hERG inh. The protocol: On the day of the assay, various dilutions of test articles of the invention are prepared in assay buffer (Predictor™ hERG Fluorescence Polarization Assay Kit, ThermoFisher Scientific #PV5365) and dilutions are added to membranes fractions that contain the functional hERG ion channel (supplied by the kit). […] Under normal conditions, the tracer binds to the hERG channel and the fluorecence polarization measured is high. […] The concentration of free tracer is measured via fluorescence polarization using parameters prescribed in the kit with a Tecan M1000Pro multiplate reader. […] The fluorescence polarization is plotted versus test article concentration and an IC50 for hERG inhibition is calculated using standard methods. All data manipluations are in GraphPad Prism v6.

The next test concerns the target T3, human CYP2D6 isozyme (Homo sapiens, UniProt P10635).
T3 construct: purchased ThermoFisher Scientific P2972
Kind of test: CYP2D6 assay (Vivid CYP2D6 Blue Screening Kit). It counts as in vitro ADME. The settings on record: CYP450 microsomes, fluorogenic substrate; read-out: CYP2D6 inh. As to the method: On the day of the assay, various dilutions of test articles of the invention are prepared in assay buffer (Vivid® CYP2D6 Blue Screening Kit, ThermoFisher Scientific #P2972) and dilutions are added to a preparation of CYP450 microsomes expressing the functional human CYP2D6 isozyme (supplied by the kit) and incubated for 15 minutes at 37° C. to allow interactions between the test article of invention and the enzyme in the absence of enzyme turnover. The enzymatic reaction is initiated by addition of the NADPH co-factor in the precense of the fluorogenic substrate. Under normal conditions, this substrate (which is not fluorescent) is cleaved by active CYP2D6 to produce a a fluorescent product. When in the presence of test article, the lack of appearance of the fluorescent product is evidence of inhibition of the CYP2D6 enzyme by the test article. The enzymatic reaction is allowed to proceed for 30 minutes at […] and then terminated by the addition of 0.5 M Tris pH 10.8. The concentration of fluorescent cleavage product is measured using spectroscopic parameters prescribed in the kit with a Tecan M1000Pro multiplate reader. The percent inhibition is calculated based on the fluorescence intensity observed in the presence of the positive control inhibitor, quinidine (Sigma #Q3625), included in each assay. The percent inhibition is plotted versus test article concentration and an IC50 for CYP2D6 inhibition is calculated using standard methods. All data manipluations are in GraphPad Prism v6.

The target in test [1] is T4, human somatostatin receptor subtype 2 (Homo sapiens, UniProt P30874).
T4 construct: expressed in transfected cells
Kind of test: cAMP functional assay for SSTR2 agonists. It counts as cell-based. The settings on record: cAMP inhibition, Table C; read-out: hSST2 (EC50). The essentials:
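CHO-K1 cells stably expressing human SSTR2 were treated for 20 min at 37 °C with compound plus NKH477 (added as 1.6 μM) in HBSS with IBMX. Intracellular cAMP was measured by HTRF against a standard curve. EC50 values came from concentration-response curves.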

T1 sequence (P31391 whole entry): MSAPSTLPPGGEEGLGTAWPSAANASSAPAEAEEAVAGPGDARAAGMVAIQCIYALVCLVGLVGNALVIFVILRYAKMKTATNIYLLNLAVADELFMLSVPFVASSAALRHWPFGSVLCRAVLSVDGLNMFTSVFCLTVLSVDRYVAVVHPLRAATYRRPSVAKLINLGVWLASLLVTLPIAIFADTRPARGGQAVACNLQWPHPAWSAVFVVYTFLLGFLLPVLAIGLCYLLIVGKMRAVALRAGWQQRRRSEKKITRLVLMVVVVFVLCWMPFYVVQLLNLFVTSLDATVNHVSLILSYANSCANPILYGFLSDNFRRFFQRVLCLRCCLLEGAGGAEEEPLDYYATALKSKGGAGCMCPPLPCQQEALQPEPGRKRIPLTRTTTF
T2 sequence (Q12809 whole entry): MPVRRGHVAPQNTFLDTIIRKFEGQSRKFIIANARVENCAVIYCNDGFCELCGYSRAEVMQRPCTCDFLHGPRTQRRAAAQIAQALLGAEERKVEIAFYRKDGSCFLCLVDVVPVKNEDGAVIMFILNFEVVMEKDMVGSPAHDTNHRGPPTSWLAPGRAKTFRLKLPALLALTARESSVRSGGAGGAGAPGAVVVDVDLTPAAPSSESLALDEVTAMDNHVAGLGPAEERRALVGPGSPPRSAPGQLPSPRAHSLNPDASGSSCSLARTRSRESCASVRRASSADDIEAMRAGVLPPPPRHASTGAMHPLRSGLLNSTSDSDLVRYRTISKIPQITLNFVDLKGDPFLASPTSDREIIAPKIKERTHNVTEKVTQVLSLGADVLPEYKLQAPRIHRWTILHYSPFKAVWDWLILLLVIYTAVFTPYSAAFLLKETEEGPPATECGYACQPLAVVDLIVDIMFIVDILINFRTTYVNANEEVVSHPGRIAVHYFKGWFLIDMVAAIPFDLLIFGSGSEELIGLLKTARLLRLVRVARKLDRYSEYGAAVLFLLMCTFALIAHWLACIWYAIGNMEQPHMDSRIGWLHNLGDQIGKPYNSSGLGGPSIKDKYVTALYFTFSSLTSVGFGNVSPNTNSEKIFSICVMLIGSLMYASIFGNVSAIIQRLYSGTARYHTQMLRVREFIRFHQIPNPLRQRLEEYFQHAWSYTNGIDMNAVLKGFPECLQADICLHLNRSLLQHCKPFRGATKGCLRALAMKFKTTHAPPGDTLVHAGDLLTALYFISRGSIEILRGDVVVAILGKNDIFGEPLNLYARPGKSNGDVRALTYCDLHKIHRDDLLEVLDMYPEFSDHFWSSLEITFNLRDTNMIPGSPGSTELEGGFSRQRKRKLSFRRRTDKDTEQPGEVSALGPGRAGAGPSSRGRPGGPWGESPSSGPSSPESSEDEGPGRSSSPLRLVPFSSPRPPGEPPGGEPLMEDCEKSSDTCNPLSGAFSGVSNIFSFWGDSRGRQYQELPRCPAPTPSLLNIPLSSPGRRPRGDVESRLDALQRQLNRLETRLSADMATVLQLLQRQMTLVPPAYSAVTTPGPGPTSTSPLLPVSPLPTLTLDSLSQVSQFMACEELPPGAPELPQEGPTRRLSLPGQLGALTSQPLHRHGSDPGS
T4 sequence (P30874 whole entry): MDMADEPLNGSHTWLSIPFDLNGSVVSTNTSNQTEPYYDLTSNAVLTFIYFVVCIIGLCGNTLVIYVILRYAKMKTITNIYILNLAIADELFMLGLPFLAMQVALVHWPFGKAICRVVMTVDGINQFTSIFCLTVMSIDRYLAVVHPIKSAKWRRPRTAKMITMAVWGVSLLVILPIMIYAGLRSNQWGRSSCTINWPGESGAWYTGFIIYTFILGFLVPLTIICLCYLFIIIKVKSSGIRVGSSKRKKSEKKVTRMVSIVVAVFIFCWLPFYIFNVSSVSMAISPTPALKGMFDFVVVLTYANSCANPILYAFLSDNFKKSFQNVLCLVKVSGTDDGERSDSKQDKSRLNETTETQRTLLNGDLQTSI
T3 sequence (P10635 whole entry): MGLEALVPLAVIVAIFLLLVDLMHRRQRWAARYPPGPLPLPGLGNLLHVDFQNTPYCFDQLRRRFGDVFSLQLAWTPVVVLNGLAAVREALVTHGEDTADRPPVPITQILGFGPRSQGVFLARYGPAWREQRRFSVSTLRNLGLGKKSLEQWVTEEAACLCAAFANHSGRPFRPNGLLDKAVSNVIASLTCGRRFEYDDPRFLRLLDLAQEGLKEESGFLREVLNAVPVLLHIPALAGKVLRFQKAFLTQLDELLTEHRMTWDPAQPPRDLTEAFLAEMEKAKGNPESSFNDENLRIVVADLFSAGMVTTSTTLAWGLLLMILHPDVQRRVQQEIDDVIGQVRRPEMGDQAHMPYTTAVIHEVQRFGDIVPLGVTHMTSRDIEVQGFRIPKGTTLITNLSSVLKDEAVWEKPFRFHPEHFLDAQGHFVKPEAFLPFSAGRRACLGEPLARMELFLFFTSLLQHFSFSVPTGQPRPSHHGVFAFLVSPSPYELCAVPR

Turning to `Cc1cc(F)cc(-c2cncc(-c3nc4cccc(F)c4[nH]3)c2N2CCC(N)CC2)c1` [R^1=H, R^5=H, R^6=H, R^7=7-F, reference compound], the EC50 at hSSTR4 (cAMP inhibition, Table C, read-out: hSST4 (EC50)) was 0.09 nM; in test [1], 0.43 nM. At hSSTR4 (selectivity for inhibition of cAMP via hSSTR2 vs. hSSTR4), the “hSST4/hSST2 (ratio)” value is reported as “e (below 1)”. Moreover, the figures for the IC50 on hERG ion channel and at human CYP2D6 isozyme were above 5 µM and below 5 µM, respectively.
